In patent US20240401073A1, “ALS INHIBITOR HERBICIDE TOLERANT BETA VULGARIS MUTANTS” (KWS SAAT SE & Co. KGaA, priority 2021, published 2024):

How the values were obtained:
[1] = test system: heterozygous BvALS_D371E mutants; format: in vivo, Beta vulgaris (sugar beet); conditions: greenhouse, 1× recommended field application concentration, treated when first true leaves appeared, rated 14 days after treatment; growing of first pair of true leaves as indicator
Description: (§1) The identified ALS mutants have been tested repeatedly in CONVISO® ONE treatments in concentrations used for field treatments as well as in treatment with the individual active ingredients of CONVISO® ONE, Foramsulfuron and Thiencarbazon-methyl, treatment with Pulsar® 40 (active ingredient: Imazamox), treatment with active ingredient Bispyribac, and treatment with Broadway® (active ingredients: Florasulam, Pyroxylam) (Table 1). All herbicide treatments has been conducted with amount corresponding to 1× recommended field application concentration: Offspring seed of both, a plant homozygous and heterozygous for BvALS_D371E mutation as well as the M0-background genotype were sown, cultivated in a greenhouse and transplanted to single pots after emergence. Herbicide treatments were performed when first true leaves appeared.
(§2) Tolerance ratings were taken 14 days after treatment. Growing of the first pair of true leaves was used as indicator for herbicide tolerance.

[2] = test system: homozygous BvALS_D371E mutants; format: in vivo, Beta vulgaris (sugar beet); conditions: greenhouse, 1× recommended field application concentration, treated when first true leaves appeared, rated 14 days after treatment; growing of first pair of true leaves as indicator
Description: as §1, §2

[3] = test system: sugar beet mutant line carrying W569L; conditions: WO 2012/049268; cited from earlier work

## COc1cc(OC)nc(Oc2cccc(Oc3nc(OC)cc(OC)n3)c2C(=O)O)n1 [Bispyribac]
[1]
  Herbicide tolerance, Heterozygous mutants: tolerant
[2]
  Herbicide tolerance, Homozygous mutants: Tolerant

## COc1cc(OC)nc(NC(=O)NS(=O)(=O)c2cc(NC=O)ccc2C(=O)N(C)C)n1 [foramsulfuron]
[1]
  Herbicide tolerance, Heterozygous mutants: tolerant
[2]
  Herbicide tolerance, Homozygous mutants: Tolerant
[3]
  herbicide tolerance of W569L mutant line: tolerant

## COC(=O)c1csc(C)c1S(=O)(=O)NC(=O)n1nc(OC)n(C)c1=O [thiencarbazone-methyl]
[1]
  Herbicide tolerance, Heterozygous mutants: tolerant
[2]
  Herbicide tolerance, Homozygous mutants: Tolerant
[3]
  herbicide tolerance of W569L mutant line: tolerant
